Laboratory results published in ChEMBL document CHEMBL4507294, “Data for DCP probe MSD-CYP11B2” (2021).

Key:
[1] = target: Interferon-induced, double-stranded RNA-activated protein kinase (Homo sapiens) (UniProt P19525); conditions: Compound concentration 1000.0 nM
[2] = target: Serine/threonine-protein kinase 16 (Homo sapiens) (UniProt O75716); conditions: Compound concentration 1000.0 nM
[3] = target: Mitogen-activated protein kinase kinase kinase 7 (Homo sapiens) (UniProt O43318); conditions: Compound concentration 1000.0 nM
[4] = target: Serine/threonine-protein kinase PAK 1 (Homo sapiens) (UniProt Q13153); conditions: Compound concentration 1000.0 nM
[5] = target: Serine/threonine-protein kinase Chk1 (Homo sapiens) (UniProt O14757); conditions: Compound concentration 1000.0 nM
[6] = target: Death-associated protein kinase 3 (Homo sapiens) (UniProt O43293); conditions: Compound concentration 1000.0 nM
[7] = target: G protein-coupled receptor kinase 4 (Homo sapiens) (UniProt P32298); conditions: Compound concentration 1000.0 nM
Chain of G protein-coupled receptor kinase 4 (Homo sapiens) (P32298 whole entry, looked up): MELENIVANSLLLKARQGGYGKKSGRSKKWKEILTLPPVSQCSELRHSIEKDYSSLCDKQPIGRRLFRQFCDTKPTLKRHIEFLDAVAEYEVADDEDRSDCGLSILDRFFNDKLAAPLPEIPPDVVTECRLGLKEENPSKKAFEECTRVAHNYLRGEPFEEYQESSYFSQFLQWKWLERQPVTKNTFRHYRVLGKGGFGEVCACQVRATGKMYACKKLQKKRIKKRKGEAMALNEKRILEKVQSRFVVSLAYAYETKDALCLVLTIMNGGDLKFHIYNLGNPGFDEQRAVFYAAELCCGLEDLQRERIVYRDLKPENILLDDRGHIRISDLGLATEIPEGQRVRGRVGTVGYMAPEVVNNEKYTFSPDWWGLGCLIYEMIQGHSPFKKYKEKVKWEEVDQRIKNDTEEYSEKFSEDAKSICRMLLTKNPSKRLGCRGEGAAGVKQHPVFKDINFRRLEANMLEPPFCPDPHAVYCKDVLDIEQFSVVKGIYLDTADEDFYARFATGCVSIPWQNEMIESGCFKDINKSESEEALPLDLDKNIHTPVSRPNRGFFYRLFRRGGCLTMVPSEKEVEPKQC

[8] = target: Mitogen-activated protein kinase kinase kinase 4 (Homo sapiens) (UniProt Q9Y6R4); conditions: Compound concentration 1000.0 nM
[9] = target: Tyrosine-protein kinase Blk (Homo sapiens) (UniProt P51451); conditions: Compound concentration 1000.0 nM
[10] = target: Serine/threonine-protein kinase D1 (Homo sapiens) (UniProt Q15139); conditions: Compound concentration 1000.0 nM
[11] = target: Mitogen-activated protein kinase kinase kinase kinase 3 (Homo sapiens) (UniProt Q8IVH8); conditions: Compound concentration 1000.0 nM
[12] = target: Serine/threonine-protein kinase TAO2 (Homo sapiens) (UniProt Q9UL54); conditions: Compound concentration 1000.0 nM
Chain of Serine/threonine-protein kinase TAO2 (Homo sapiens) (Q9UL54 whole entry): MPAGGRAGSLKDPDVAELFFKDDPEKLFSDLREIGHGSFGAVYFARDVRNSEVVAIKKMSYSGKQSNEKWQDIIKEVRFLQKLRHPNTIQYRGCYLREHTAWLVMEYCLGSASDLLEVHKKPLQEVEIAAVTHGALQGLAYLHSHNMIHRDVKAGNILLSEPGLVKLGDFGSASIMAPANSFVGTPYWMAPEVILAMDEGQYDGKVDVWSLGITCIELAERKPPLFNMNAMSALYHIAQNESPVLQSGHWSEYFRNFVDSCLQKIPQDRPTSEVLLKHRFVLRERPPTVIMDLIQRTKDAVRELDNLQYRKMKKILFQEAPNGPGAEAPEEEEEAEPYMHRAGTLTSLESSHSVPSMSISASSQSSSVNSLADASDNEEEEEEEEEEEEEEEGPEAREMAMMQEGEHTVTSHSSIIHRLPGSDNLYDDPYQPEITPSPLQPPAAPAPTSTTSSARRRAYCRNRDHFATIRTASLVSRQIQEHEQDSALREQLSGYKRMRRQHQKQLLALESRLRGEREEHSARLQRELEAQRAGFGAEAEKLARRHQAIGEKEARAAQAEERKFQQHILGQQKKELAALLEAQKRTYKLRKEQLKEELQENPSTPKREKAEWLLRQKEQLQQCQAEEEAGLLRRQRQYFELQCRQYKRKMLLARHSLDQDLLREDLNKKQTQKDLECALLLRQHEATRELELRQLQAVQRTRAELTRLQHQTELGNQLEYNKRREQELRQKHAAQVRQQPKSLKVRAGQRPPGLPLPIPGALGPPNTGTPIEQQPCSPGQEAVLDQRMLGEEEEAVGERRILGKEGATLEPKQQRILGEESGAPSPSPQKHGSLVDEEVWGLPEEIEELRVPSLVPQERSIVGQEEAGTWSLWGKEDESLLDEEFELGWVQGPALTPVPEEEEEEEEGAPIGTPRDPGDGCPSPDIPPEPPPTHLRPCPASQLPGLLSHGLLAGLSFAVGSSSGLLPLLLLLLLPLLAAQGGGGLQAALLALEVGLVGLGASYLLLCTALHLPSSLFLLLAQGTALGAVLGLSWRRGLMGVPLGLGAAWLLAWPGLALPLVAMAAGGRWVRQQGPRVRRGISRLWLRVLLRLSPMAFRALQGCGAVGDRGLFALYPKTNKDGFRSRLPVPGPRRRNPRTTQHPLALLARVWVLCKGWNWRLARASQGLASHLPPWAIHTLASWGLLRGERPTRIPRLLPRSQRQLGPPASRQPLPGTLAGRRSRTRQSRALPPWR

[13] = target: Protein-tyrosine kinase 6 (Homo sapiens) (UniProt Q13882); conditions: Compound concentration 1000.0 nM
[14] = target: cAMP-dependent protein kinase catalytic subunit alpha (Homo sapiens) (UniProt P17612); conditions: Compound concentration 1000.0 nM
[15] = target: Activin receptor type-2A (Homo sapiens) (UniProt P27037); conditions: Compound concentration 1000.0 nM
[16] = target: Ephrin type-B receptor 2 (Homo sapiens) (UniProt P29323); conditions: Compound concentration 1000.0 nM
[17] = target: Serine/threonine-protein kinase WNK3 (Homo sapiens) (UniProt Q9BYP7); conditions: Compound concentration 1000.0 nM
[18] = tested on: Epidermal growth factor receptor (Homo sapiens), P00533 [L861Q]; conditions: Compound concentration 1000.0 nM
[19] = target: cGMP-dependent protein kinase 2 (Homo sapiens) (UniProt Q13237); conditions: Compound concentration 1000.0 nM
[20] = target: Ephrin type-B receptor 4 (Homo sapiens) (UniProt P54760); conditions: Compound concentration 1000.0 nM
Chain of Ephrin type-B receptor 4 (Homo sapiens) (P54760 whole entry): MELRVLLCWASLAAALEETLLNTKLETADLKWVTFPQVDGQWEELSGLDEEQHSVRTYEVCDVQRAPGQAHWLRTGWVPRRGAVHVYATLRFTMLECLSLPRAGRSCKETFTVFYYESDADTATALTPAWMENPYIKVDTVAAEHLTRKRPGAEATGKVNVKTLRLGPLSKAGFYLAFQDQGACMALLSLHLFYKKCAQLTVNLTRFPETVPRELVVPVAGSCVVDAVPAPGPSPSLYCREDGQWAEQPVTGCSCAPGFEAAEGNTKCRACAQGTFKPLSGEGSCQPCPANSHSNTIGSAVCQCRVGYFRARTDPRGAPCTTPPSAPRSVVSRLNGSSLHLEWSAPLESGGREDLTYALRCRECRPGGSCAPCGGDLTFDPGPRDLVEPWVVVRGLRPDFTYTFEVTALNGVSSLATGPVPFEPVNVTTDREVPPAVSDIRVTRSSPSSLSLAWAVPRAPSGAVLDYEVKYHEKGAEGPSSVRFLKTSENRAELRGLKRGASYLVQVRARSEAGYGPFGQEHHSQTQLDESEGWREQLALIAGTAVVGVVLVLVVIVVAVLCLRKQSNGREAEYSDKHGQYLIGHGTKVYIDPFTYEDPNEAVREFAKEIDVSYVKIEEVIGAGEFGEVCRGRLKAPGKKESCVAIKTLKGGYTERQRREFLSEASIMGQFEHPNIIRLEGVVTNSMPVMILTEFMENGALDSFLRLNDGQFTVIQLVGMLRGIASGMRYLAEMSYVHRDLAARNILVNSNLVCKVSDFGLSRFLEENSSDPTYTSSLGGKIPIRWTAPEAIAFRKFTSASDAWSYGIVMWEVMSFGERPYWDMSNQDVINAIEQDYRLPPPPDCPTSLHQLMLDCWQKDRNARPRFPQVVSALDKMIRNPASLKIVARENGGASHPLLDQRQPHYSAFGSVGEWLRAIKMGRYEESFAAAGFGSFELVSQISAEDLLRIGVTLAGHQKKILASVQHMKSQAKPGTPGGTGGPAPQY

[21] = target: Tyrosine-protein kinase receptor Tie-1 (Homo sapiens) (UniProt P35590); conditions: Compound concentration 1000.0 nM
[22] = target: Serine/threonine-protein kinase mTOR (Homo sapiens) (UniProt P42345); conditions: Compound concentration 1000.0 nM
[23] = target: D(3) dopamine receptor (Homo sapiens) (UniProt P35462); conditions: Compound concentration 10.0 uM
Chain of D(3) dopamine receptor (Homo sapiens) (P35462 whole entry): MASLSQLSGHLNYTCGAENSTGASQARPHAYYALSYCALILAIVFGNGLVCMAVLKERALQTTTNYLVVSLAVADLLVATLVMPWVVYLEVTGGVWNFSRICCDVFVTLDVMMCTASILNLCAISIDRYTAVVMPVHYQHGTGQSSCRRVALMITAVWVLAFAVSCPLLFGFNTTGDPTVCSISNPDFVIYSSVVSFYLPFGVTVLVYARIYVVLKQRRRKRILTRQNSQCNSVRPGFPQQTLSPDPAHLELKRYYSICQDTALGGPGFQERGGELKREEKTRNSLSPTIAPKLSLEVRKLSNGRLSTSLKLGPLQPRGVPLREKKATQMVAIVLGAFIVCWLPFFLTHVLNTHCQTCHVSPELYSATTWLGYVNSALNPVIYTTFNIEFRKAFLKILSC

[24] = tested on: Leucine-rich repeat serine/threonine-protein kinase 2 (Homo sapiens), Q5S007 [G2019S]; conditions: Compound concentration 1000.0 nM
[25] = target: Serine/threonine-protein kinase ULK2 (Homo sapiens) (UniProt Q8IYT8); conditions: Compound concentration 1000.0 nM
[26] = target: 5'-AMP-activated protein kinase catalytic subunit alpha-1 (Homo sapiens) (UniProt Q13131); conditions: Compound concentration 1000.0 nM
[27] = target: Myosin light chain kinase 2, skeletal/cardiac muscle (Homo sapiens) (UniProt Q9H1R3); conditions: Compound concentration 1000.0 nM
[28] = tested on: Mast/stem cell growth factor receptor Kit (Homo sapiens), P10721 [D816V]; conditions: Compound concentration 1000.0 nM
[29] = target: Mitogen-activated protein kinase 12 (Homo sapiens) (UniProt P53778); conditions: Compound concentration 1000.0 nM
[30] = tested on: Phosphatidylinositol 4,5-bisphosphate 3-kinase catalytic subunit alpha isoform (Homo sapiens), P42336 [E542K]; conditions: Compound concentration 1000.0 nM
[31] = target: Tyrosine-protein kinase CSK (Homo sapiens) (UniProt P41240); conditions: Compound concentration 1000.0 nM
[32] = target: Histamine H2 receptor (Homo sapiens) (UniProt P25021); conditions: Compound concentration 10.0 uM
[33] = target: 5-hydroxytryptamine receptor 1B (Homo sapiens) (UniProt P28222); conditions: Compound concentration 10.0 uM
[34] = target: Receptor-interacting serine/threonine-protein kinase 2 (Homo sapiens) (UniProt O43353); conditions: Compound concentration 1000.0 nM
[35] = target: Serine/threonine-protein kinase ULK3 (Homo sapiens) (UniProt Q6PHR2); conditions: Compound concentration 1000.0 nM
[36] = tested on: Phosphatidylinositol 4,5-bisphosphate 3-kinase catalytic subunit alpha isoform (Homo sapiens), P42336 [E545K]; conditions: Compound concentration 1000.0 nM
[37] = target: Vascular endothelial growth factor receptor 2 (Homo sapiens) (UniProt P35968); conditions: Compound concentration 1000.0 nM
[38] = target: Mitogen-activated protein kinase kinase kinase 6 (Homo sapiens) (UniProt O95382); conditions: Compound concentration 1000.0 nM
[39] = target: Cyclin-dependent kinase-like 5 (Homo sapiens) (UniProt O76039); conditions: Compound concentration 1000.0 nM
[40] = target: Serine/threonine-protein kinase OSR1 (Homo sapiens) (UniProt O95747); conditions: Compound concentration 1000.0 nM
[41] = target: Serine/threonine-protein kinase PAK 2 (Homo sapiens) (UniProt Q13177); conditions: Compound concentration 1000.0 nM
[42] = target: Calcium/calmodulin-dependent protein kinase kinase 1 (Homo sapiens) (UniProt Q8N5S9); conditions: Compound concentration 1000.0 nM
[43] = target: Myosin-IIIa (Homo sapiens) (UniProt Q8NEV4); conditions: Compound concentration 1000.0 nM
Chain of Myosin-IIIa (Homo sapiens) (Q8NEV4 whole entry, the tested form may be a part): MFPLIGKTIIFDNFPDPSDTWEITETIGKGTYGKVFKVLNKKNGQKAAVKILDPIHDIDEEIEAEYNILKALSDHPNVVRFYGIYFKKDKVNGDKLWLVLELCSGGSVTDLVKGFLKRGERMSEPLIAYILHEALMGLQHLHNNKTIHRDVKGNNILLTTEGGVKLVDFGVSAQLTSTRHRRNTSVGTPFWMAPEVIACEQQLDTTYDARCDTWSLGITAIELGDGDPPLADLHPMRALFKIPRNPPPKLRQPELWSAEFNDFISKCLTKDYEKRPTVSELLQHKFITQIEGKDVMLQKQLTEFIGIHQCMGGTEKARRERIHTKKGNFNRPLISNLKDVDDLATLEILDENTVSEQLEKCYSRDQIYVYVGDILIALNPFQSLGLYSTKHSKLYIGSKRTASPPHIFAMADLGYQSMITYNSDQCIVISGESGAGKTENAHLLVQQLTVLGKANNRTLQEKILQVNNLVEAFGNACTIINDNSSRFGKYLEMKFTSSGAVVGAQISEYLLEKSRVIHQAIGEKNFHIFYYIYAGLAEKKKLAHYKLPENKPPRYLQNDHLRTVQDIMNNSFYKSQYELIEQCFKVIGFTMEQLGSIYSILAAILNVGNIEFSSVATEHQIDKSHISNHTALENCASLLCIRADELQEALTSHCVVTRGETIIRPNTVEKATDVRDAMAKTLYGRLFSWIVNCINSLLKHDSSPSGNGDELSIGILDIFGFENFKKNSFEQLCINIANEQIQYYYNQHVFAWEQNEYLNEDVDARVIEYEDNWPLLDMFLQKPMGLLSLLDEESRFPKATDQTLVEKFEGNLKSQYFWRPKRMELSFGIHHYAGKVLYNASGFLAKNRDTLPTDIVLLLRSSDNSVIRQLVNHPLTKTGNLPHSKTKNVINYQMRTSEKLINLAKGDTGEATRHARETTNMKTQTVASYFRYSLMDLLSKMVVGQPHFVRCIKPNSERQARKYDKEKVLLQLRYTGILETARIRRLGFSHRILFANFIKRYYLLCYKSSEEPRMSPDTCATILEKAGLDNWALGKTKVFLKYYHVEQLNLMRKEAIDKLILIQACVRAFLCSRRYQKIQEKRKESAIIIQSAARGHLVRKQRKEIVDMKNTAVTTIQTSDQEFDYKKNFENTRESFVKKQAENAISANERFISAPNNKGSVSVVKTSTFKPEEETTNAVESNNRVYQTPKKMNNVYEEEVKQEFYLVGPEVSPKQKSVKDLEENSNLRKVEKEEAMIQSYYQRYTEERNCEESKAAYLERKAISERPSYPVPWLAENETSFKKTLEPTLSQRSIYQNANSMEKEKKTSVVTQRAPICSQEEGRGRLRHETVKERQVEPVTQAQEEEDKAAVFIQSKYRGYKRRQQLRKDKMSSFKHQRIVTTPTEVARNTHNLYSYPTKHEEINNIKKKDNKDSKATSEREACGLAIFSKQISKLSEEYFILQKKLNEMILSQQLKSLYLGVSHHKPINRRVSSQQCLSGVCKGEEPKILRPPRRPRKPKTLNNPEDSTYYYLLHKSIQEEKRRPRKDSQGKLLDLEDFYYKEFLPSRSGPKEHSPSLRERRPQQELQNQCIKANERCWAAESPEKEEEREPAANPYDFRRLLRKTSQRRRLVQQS

[44] = target: Epithelial discoidin domain-containing receptor 1 (Homo sapiens) (UniProt Q08345); conditions: Compound concentration 1000.0 nM
[45] = target: Casein kinase I isoform alpha-like (Homo sapiens) (UniProt Q8N752); conditions: Compound concentration 1000.0 nM

CC(C)(O)c1cncc(-c2nc3ccc(F)cc3n2C2CC2)c1 [MSD-CYP11B2]
inactive: residual activity [1] 91% | residual activity [2] 100% | residual activity [3] 100% | residual activity [4] 100% | residual activity [5] 100% | residual activity [6] 100% | residual activity [7] 100% | residual activity [8] 100% | residual activity [9] 98% | residual activity [10] 100% | residual activity [11] 100% | residual activity [12] 100% | residual activity [13] 100% | residual activity [14] 100% | residual activity [15] 87% | residual activity [16] 99% | residual activity [17] 100% | residual activity [18] 100% | residual activity [19] 90% | residual activity [20] 100% | residual activity [21] 100% | residual activity [22] 96% | inhibition [23] -6.18% | residual activity [24] 100% | residual activity [25] 100% | residual activity [26] 100% | residual activity [27] 97% | residual activity [28] 100% | residual activity [29] 88% | residual activity [30] 84% | residual activity [31] 100% | inhibition [32] 1.75% | inhibition [33] 16.8% | residual activity [34] 100% | residual activity [35] 95% | residual activity [36] 95% | residual activity [37] 100% | residual activity [38] 100% | residual activity [39] 100% | residual activity [40] 100% | residual activity [41] 100% | residual activity [42] 100% | residual activity [43] 100% | residual activity [44] 100% | residual activity [45] 100%

FC(F)(F)c1ccc2c(c1)nc(-c1cccnc1)n2C1CC1 [MSD-CYP11B2-Negative-control]
inactive: residual activity [1] 89% | residual activity [2] 100% | residual activity [3] 100% | residual activity [4] 100% | residual activity [5] 100% | residual activity [6] 100% | residual activity [7] 100% | residual activity [8] 100% | residual activity [9] 96% | residual activity [10] 100% | residual activity [11] 100% | residual activity [12] 99% | residual activity [13] 100% | residual activity [14] 100% | residual activity [15] 100% | residual activity [16] 83% | residual activity [17] 100% | residual activity [18] 100% | residual activity [19] 78% | residual activity [20] 100% | residual activity [21] 100% | residual activity [22] 80% | inhibition [23] -1.96% | residual activity [24] 100% | residual activity [25] 100% | residual activity [26] 100% | residual activity [27] 100% | residual activity [28] 100% | residual activity [29] 100% | residual activity [30] 100% | residual activity [31] 100% | inhibition [32] 6.72% | inhibition [33] 8.83% | residual activity [34] 100% | residual activity [35] 100% | residual activity [36] 100% | residual activity [37] 100% | residual activity [38] 100% | residual activity [39] 91% | residual activity [40] 100% | residual activity [41] 100% | residual activity [42] 100% | residual activity [43] 100% | residual activity [44] 100% | residual activity [45] 100%
